# From ChEMBL document CHEMBL1201862, “PubChem BioAssay data set” (2004)
#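 Results reflect a 48-hour exposure of cells in 96-well plates to compound at five concentrations. Abbreviation: GI50, concentration required for 50% inhibition of growth.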 The source made the active and inactive calls. Cut-off read from the data, not from the text of the source: active = GI50 up to about 1.1 µM and inactive = higher.
# Experiments:
# Assay in all cases: NCI-60 cell line screen, 48 h
# 786-0 = tested on: 786-0
# PC-3 = tested on: PC-3
# T47D = tested on: T47D
# OVCAR-5 = tested on: OVCAR-5
# MOLT-4 = tested on: MOLT-4
# Hs-578T = tested on: Hs-578T
# HOP-92 = tested on: HOP-92
# IGROV-1 = tested on: IGROV-1
# MDA-MB-435 = tested on: MDA-MB-435
# COLO 205 = tested on: COLO 205
# HOP-62 = tested on: HOP-62
# Malme-3M = tested on: Malme-3M
# NCI-H522 = tested on: NCI-H522
# SN12C = tested on: SN12C
# HCT-15 = tested on: HCT-15
# TK-10 = tested on: TK-10
# HT-29 = tested on: HT-29
# RPMI-8226 = tested on: RPMI-8226
# LOX IMVI = tested on: LOX IMVI
# KM12 = tested on: KM12
SMILES,GI50 (786-0),GI50 (PC-3),GI50 (T47D),GI50 (OVCAR-5),GI50 (MOLT-4),GI50 (Hs-578T),GI50 (HOP-92),GI50 (IGROV-1),GI50 (MDA-MB-435),GI50 (COLO 205),GI50 (HOP-62),GI50 (Malme-3M),GI50 (NCI-H522),GI50 (SN12C),GI50 (HCT-15),GI50 (TK-10),GI50 (HT-29),GI50 (RPMI-8226),GI50 (LOX IMVI),GI50 (KM12)
COc1ccc(CSCc2cc(OC)c(OC)c(OC)c2)cc1,> 100 µM (inactive),> 31.6 µM (inactive),8 µM (inactive),> 100 µM (inactive),> 48.5 µM (inactive),> 66.4 µM (inactive),23.9 µM (inactive),> 100 µM (inactive),4.43 µM (inactive),> 100 µM (inactive),> 100 µM (inactive),> 31.6 µM (inactive),> 100 µM (inactive),> 86.1 µM (inactive),> 45.3 µM,> 100 µM (inactive),> 100 µM (inactive),> 55 µM (inactive),28.4 µM (inactive),27.1 µM (inactive)
CC(=O)O[C@H]1C#C/C=C\C#CC[C@@H]2C(=O)N[C@@H]12,5.42 µM (inactive),> 100 µM (inactive),52.7 µM (inactive),> 100 µM (inactive),0.231 µM (active),47.3 µM (inactive),46.2 µM (inactive),22.8 µM (inactive),> 100 µM (inactive),50.4 µM (inactive),7.94 µM (inactive),22.9 µM (inactive),19.1 µM (inactive),26 µM (inactive),22.4 µM,> 59.7 µM (inactive),> 49.8 µM (inactive),21.3 µM (inactive),7.78 µM (inactive),> 100 µM (inactive)
Cc1nc2ccc(S(=O)(=O)O)cc2c(=O)n1-c1ccc(C(=O)NN2C(=O)C(Cl)C2c2cccs2)cc1 (configuration not stated),> 100 µM (inactive),> 100 µM (inactive),31.3 µM (inactive),> 100 µM (inactive),> 100 µM (inactive),> 100 µM (inactive),> 100 µM (inactive),,27.5 µM (inactive),> 100 µM (inactive),23.1 µM (inactive),> 100 µM (inactive),> 100 µM (inactive),> 100 µM (inactive),> 100 µM,> 100 µM (inactive),> 100 µM (inactive),> 100 µM (inactive),> 100 µM (inactive),> 100 µM (inactive)
N=C(N)SCc1ccc(N=C=S)cc1,13.8 µM (inactive),15.9 µM (inactive),13.6 µM (inactive),14.4 µM (inactive),> 100 µM (inactive),12.6 µM (inactive),11.7 µM (inactive),12.9 µM (inactive),13.1 µM (inactive),13.4 µM (inactive),16.6 µM (inactive),14.3 µM (inactive),10 µM (inactive),14.5 µM (inactive),11.3 µM,14.5 µM (inactive),15.1 µM (inactive),12.4 µM (inactive),12.8 µM (inactive),14.3 µM (inactive)
O=C1C(c2c(O)[nH]c3ccc(Cl)cc23)=Nc2ccccc21,1.99 µM (inactive),3.28 µM (inactive),3.7 µM (inactive),8.11 µM (inactive),> 47 µM (inactive),3.43 µM (inactive),8.02 µM (inactive),0.352 µM (active),4.3 µM (inactive),20 µM (inactive),5.58 µM (inactive),5.68 µM (inactive),10.6 µM (inactive),17 µM (inactive),7.73 µM,4.23 µM (inactive),5.09 µM (inactive),5.09 µM (inactive),3.66 µM (inactive),3.08 µM (inactive)
CCOC(=O)C1=C(C)N(CC(C)C)C2(O)C(OC)CC(=O)C3C(=O)N(c4ccccc4)C(=O)C132 (configuration not stated),66.4 µM (inactive),34 µM (inactive),47 µM (inactive),> 100 µM (inactive),15.4 µM (inactive),92.3 µM (inactive),45.6 µM (inactive),20.1 µM (inactive),37 µM (inactive),39 µM (inactive),68.7 µM (inactive),31.5 µM (inactive),16.5 µM (inactive),36 µM (inactive),23.3 µM,77.1 µM (inactive),20.7 µM (inactive),33 µM (inactive),31.3 µM (inactive),25.9 µM (inactive)
COc1cc(OC)cc(OCc2nc3cc(C(F)(F)F)ccc3nc2-c2ccccc2)c1,> 100 µM (inactive),> 100 µM (inactive),48 µM (inactive),> 100 µM (inactive),> 100 µM (inactive),69.2 µM (inactive),> 100 µM (inactive),0.809 µM (active),> 100 µM (inactive),> 100 µM (inactive),> 100 µM (inactive),> 100 µM (inactive),> 100 µM (inactive),> 100 µM (inactive),> 100 µM,> 100 µM (inactive),29.4 µM (inactive),> 100 µM (inactive),> 100 µM (inactive),> 100 µM (inactive)
N=C1OC(c2cccc(Cl)c2)C(NNS(=O)(=O)c2ccccc2)=C1O (configuration not stated),24.8 µM (inactive),21.2 µM (inactive),10 µM (inactive),31.9 µM (inactive),4.11 µM (inactive),27.4 µM (inactive),23.6 µM (inactive),70.5 µM (inactive),33 µM (inactive),13.2 µM (inactive),> 100 µM (inactive),22.4 µM (inactive),10.6 µM (inactive),44.7 µM (inactive),12.2 µM,37.7 µM (inactive),19.9 µM (inactive),10.9 µM (inactive),20.7 µM (inactive),47.8 µM (inactive)
COC(=O)c1ccc(O)c2nc3c(C=O)c(O)cc(O)c3nc12 [LOMOFUNGIN],1.73 µM (inactive),0.661 µM (active),0.397 µM (active),0.822 µM (active),0.225 µM (active),1.21 µM (inactive),1.2 µM (inactive),0.206 µM (active),0.935 µM (active),3.1 µM (inactive),1.36 µM (inactive),2.07 µM (inactive),0.755 µM (active),0.499 µM (active),0.22 µM,1.62 µM (inactive),0.458 µM (active),0.811 µM (active),0.269 µM (active),1.3 µM (inactive)
C=C1CC2(C)CCC(OC(=O)C3(C)OC3C)C(C)(OC(C)=O)C2CC1=C(C)C (configuration not stated),> 10 µM (inactive),> 100 µM (inactive),> 100 µM (inactive),> 100 µM (inactive),> 100 µM (inactive),> 100 µM (inactive),> 100 µM (inactive),> 100 µM (inactive),> 100 µM (inactive),> 100 µM (inactive),> 100 µM (inactive),> 100 µM (inactive),> 100 µM (inactive),> 100 µM (inactive),> 100 µM,> 100 µM (inactive),> 100 µM (inactive),> 100 µM (inactive),> 100 µM (inactive),> 100 µM (inactive)
NS(=O)(=O)c1ccc(N2C(=O)C(=O)N(c3ccccc3)C2=S)cc1,> 100 µM (inactive),> 100 µM (inactive),55.1 µM (inactive),> 100 µM (inactive),> 100 µM (inactive),> 100 µM (inactive),23.6 µM (inactive),> 100 µM (inactive),> 100 µM (inactive),> 100 µM (inactive),> 100 µM (inactive),> 100 µM (inactive),27 µM (inactive),> 100 µM (inactive),60.3 µM,> 100 µM (inactive),> 100 µM (inactive),> 100 µM (inactive),> 100 µM (inactive),> 100 µM (inactive)
COc1ccc2c(c1)-c1c(c3ccccc3n1CCN1CCOCC1)CC2,22.6 µM (inactive),14.8 µM (inactive),21.5 µM (inactive),35.2 µM (inactive),13 µM (inactive),13.5 µM (inactive),36.6 µM (inactive),5.47 µM (inactive),34.5 µM (inactive),16 µM (inactive),20.1 µM (inactive),14.6 µM (inactive),15.3 µM (inactive),28.2 µM (inactive),25.9 µM,0.0363 µM (active),13.1 µM (inactive),19.4 µM (inactive),16.6 µM (inactive),11.5 µM (inactive)
OCC1C(O)C(O)[C@@H]2SCCN12 (some centres not stated),> 100 µM (inactive),> 100 µM (inactive),> 100 µM (inactive),> 100 µM (inactive),> 100 µM (inactive),> 100 µM (inactive),> 100 µM (inactive),> 100 µM (inactive),> 100 µM (inactive),> 100 µM (inactive),> 100 µM (inactive),> 100 µM (inactive),> 100 µM (inactive),,> 100 µM,> 100 µM (inactive),> 100 µM (inactive),> 100 µM (inactive),> 100 µM (inactive),> 100 µM (inactive)
Cc1ccc(S(=O)(=O)NC(=O)Nc2cccc(S(N)(=O)=O)c2)cc1,> 100 µM (inactive),> 100 µM (inactive),> 100 µM (inactive),> 100 µM (inactive),> 100 µM (inactive),> 100 µM (inactive),> 100 µM (inactive),> 100 µM (inactive),> 100 µM (inactive),> 100 µM (inactive),> 100 µM (inactive),> 100 µM (inactive),> 100 µM (inactive),,> 100 µM,> 100 µM (inactive),> 100 µM (inactive),> 100 µM (inactive),> 100 µM (inactive),> 100 µM (inactive)
